Measurements: ChEMBL document CHEMBL1131849, “Synthesis and biological characterization of sqbazide, a novel biotinylated photoaffinity probe for the study of the human platelet thromboxane A2 receptor” (Bioorg Med Chem Lett, 1999)
Active and inactive are the calls of the source. No cut-off for these calls is given here.

Tests used:
[1] = organism: Homo sapiens; test: Inhibitory activity against human platelet aggregation.; format: functional, organism-based
[2] = target: T1, Thromboxane A2 receptor (Homo sapiens, UniProt P21731); test: Binding affinity to human platelet TXA2 receptors as ability to displace binding [3H]SQ-29,548
T1 sequence (P21731 whole entry): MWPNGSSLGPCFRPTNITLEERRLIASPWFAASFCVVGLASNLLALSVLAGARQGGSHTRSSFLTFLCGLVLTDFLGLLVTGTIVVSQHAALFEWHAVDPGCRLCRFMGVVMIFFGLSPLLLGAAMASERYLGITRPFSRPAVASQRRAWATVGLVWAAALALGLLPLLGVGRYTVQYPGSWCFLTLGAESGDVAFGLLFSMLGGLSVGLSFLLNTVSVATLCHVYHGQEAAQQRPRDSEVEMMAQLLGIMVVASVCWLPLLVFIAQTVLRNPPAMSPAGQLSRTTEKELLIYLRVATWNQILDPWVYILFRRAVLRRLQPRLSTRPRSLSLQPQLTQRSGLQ

[3] = organism: Homo sapiens; test: Tested for inhibition of platelet aggregation induced by ADP; Inactive; format: functional, organism-based
[4] = organism: Homo sapiens; test: Tested for inhibition of platelet aggregation induced by A-23187; Inactive; format: functional, organism-based

IC50 [1]: 500 nM
Ki [2]: 625 nM
SMILES: [N-]=[N+]=Nc1ccc(CCCC(=O)NCC(=O)NCC2C3CCC(O3)C2C/C=C\CCCC(=O)NNC(=O)CCCC[C@H]2SC[C@H]3NC(=O)N[C@H]32)cc1 (some centres undefined)
Activity [3]: inactive
Activity [4]: inactive
